This is an account of results in publication PMC8047676 (ACS Omega, 2021).

Each structure is given as a SMILES string. Converted amounts (≈) assume the structure as drawn. “And” between values parts separate entries of the source, which are not always exact repeats. Equal entries are not always repeated. Bounds are passed on as bounds.

The subject of data set [1] is CHIKV. The note with it: Vero A cells, cited from earlier work.
Data set [2] has as its system CHIKV. The note with it: cited from earlier work.
Data set [3] is described as follows: MTT cellular cytotoxicity assay. Format: cell-based. The note with it: hamster, BHK-21 cells. For orientation: Tetrazolium dyes change colour on reduction, which living cells bring about.
For a further data set, the system named is BHK-21 cells. Kind of data set: Microscopic observation of cell morphology. It is filed as cell-based, hamster. As to conditions: 5, 10 and 20 μM, 24 h, microscope.
In data set [4] the test system is CHIKV prototype strain S27. Kind of data set: Plaque assay of CHIKV-infected BHK-21 cells. Format: cell-based, Chikungunya virus (CHIKV). As to conditions: for plaque numbers reduced: BHK-21 cells, CHIKV S27 MOI 0.01, 24 hpi.
The test system of another data set is CHIKV nsP2 RNA. The data set is described as follows: RT-PCR of CHIKV nsP2 RNA in infected BHK-21 cells. The note with it: 24 h post treatment, normalized to GAPDH. It is filed as cell-based, Chikungunya virus (CHIKV).
For a further data set, the system named is CHIKV E2 RNA. The data set is described as follows: RT-PCR of CHIKV E2 RNA in infected BHK-21 cells. It is filed as cell-based, Chikungunya virus (CHIKV). The note with it: 24 h post treatment, normalized to GAPDH.
Data set [5] deals with CHIKV nonstructural protein nsP2. Kind of data set: Western blot of CHIKV nsP2 protein in infected BHK-21 cells. As to conditions: 24 h. Format: cell-based, Chikungunya virus (CHIKV).
Data set [6] deals with CHIKV envelope E2 glycoprotein. The data set is described as follows: Western blot of CHIKV E2 protein in infected BHK-21 cells. Format: cell-based, Chikungunya virus (CHIKV). As to conditions: 24 h. Background: Immunoblotting shows a protein as a band on a membrane.
The test system of a further data set is CHIKV nsP2 protein. The data set is described as follows: Flow cytometry of nsP2 protein expression in infected BHK-21 cells. It is filed as cell-based, Chikungunya virus (CHIKV). As to conditions: for numbers of cells expressing nsP2 protein reduced: flow cytometry, 24 h post treatment. (In general: A flow cytometer gives signals particle by particle.)
A further data set has as its system CHIKV E2 protein. The data set is described as follows: Flow cytometry of E2 protein expression in infected BHK-21 cells. Format: cell-based, Chikungunya virus (CHIKV). The note with it: for percentages of infected cells showing E2 expression reduced: flow cytometry, 24 h post treatment.
Setting [7] is: ribavirin treatment, concentration not given.

One may read the IC50 as the concentration needed to halve the response being measured. By IC90 is commonly meant the concentration needed for an effect of 90%. With `CCN(CC)CCCC(C)Nc1ccnc2cc(Cl)ccc12` (centres unmarked) [Chloroquine], in the data set with CHIKV [1] (read-out: IC50, inhibition of CHIKV replication), the IC50 was 7 µM. Further, the IC90 with CHIKV [1] (read-out: IC90, inhibition of CHIKV replication) is 15 µM. Moreover, the “IC50, antiviral effects in vitro” value in the data set on CHIKV [2] was 1.1 µg/mL (≈ 3.44 µM).
For orientation: CC50 means the concentration giving 50% cytotoxicity. In the case of `Cn1c(=O)c(C(=O)CCN2CCOCC2)c(O)c2ccccc21` [QVIR, 4-hydroxy-1-methyl-3-(3-morpholinopropanoyl)quinoline-2(1H)-one], in [3], the CC50 at 24 h is over 200 µM. Further, the “morphological changes of BHK-21 cells” value in the data set on BHK-21 cells is reported as “inertness”. Also, the plaque numbers reduced is 82.62% in [4] (5 μM), 97.86% in [4] (10 μM) and 99.61% in data set [4] (20 μM). Besides, in data set [4] (Chikungunya virus, BHK-21, 24 h, read-out: EC50 (50% effective concentration) against CHIKV infection), the EC50 is 2.2 ± 0.49 µM. In addition, the “RNA levels of nsP2 decreased” value in the data set with CHIKV nsP2 RNA (5 μM) is 52.1%; in the data set on CHIKV nsP2 RNA (10 μM), 67.5%; in the data set on CHIKV nsP2 RNA (20 μM) it was 84% and 84.1%. For the same compound, the “RNA levels of E2 diminished” value came out at 39% with CHIKV E2 RNA (5 μM), 55.6% in the data set on CHIKV E2 RNA (10 μM) and 74% with CHIKV E2 RNA (20 μM). In addition, the figures for the “protein levels of nsP2 reduced” value in data set [5] (10 μM) and in data set [5] (20 μM) were 63.4% and 69.9%, respectively. Besides, the “E2 protein levels suppressed” value in data set [6] (5 μM) came to 22.8%; in [6] (10 μM), 45.8%; in data set [6] (20 μM), 53.9%. Moreover, the entries for the “numbers of cells expressing nsP2 protein reduced” value with CHIKV nsP2 protein (5 μM), with CHIKV nsP2 protein (10 μM) and with CHIKV nsP2 protein (20 μM) were 43.25%, 54.04% and 71.48%, respectively. In addition, the figures for the “percentages of infected cells showing E2 expression reduced” value in the data set on CHIKV E2 protein (5 μM), with CHIKV E2 protein (10 μM) and in the data set on CHIKV E2 protein (20 μM) were 44.60%, 51.22% and 67.7%, respectively.
In the case of `NC(=O)c1ncn([C@@H]2O[C@H](CO)[C@@H](O)[C@H]2O)n1` [Ribavirin, reference compound], in data set [4] (10 μM), the plaque numbers reduced is given as 99.15%. In addition, the “RNA levels of nsP2 decreased” value in the data set with CHIKV nsP2 RNA (10 μM) was determined as 82.7%. Besides, the “RNA levels of E2 diminished” value in the data set on CHIKV E2 RNA (10 μM) is on record as 75.8%. Moreover, the “viral nsP2 protein level by flow cytometry” value in the data set with CHIKV nsP2 protein (setting [7]) is “decreased”. For the same compound, in the data set with CHIKV E2 protein (setting [7]), the “viral E2 protein level by flow cytometry” value is listed as “decreased”.
For the compound `C=C[C@H]1C[N@@]2CC[C@H]1C[C@H]2[C@H](O)c1ccnc2ccc(OC)cc12` [quinine], in the data set on CHIKV [2], the “IC50, inhibits CHIKV in vitro” value was 0.1 µg/mL (≈ 0.308 µM).
